Values quoted from earlier work as cited in US20230363996A1, “HAIR CARE COMPOSITION” (Conopco, Inc., d/b/a UNILEVER, priority 2020, published 2023).

Conditions: organic/aqueous partition

SMILES | log P
O=C(c1ccc(O)cc1O)c1ccc(O)cc1O [benzophenone-2] | 3.09
COc1ccc(C(=O)c2ccc(OC)cc2O)c(O)c1 [benzophenone-6] | 4.78
COc1ccc(C(=O)c2ccccc2)c(O)c1 [benzophenone-3] | 3.99
O=C(c1ccccc1)c1cc(Cl)ccc1O [benzophenone-7] | 4.51
O=C(c1ccccc1)c1ccc(O)cc1O [benzophenone-1] | 3.15
COc1ccc(C(=O)c2ccc(C)cc2)c(O)c1 [benzophenone-10] | 4.66
COc1cc(O)c(C(=O)c2ccccc2)cc1S(=O)(=O)O [Benzophenone-4, reference compound] | Benzophenone-4 (logP = 0.99)
COc1ccc(C(=O)c2ccccc2O)c(O)c1 [benzophenone-8] | 4.31
